Data: ChEMBL document CHEMBL3714767, “Imidazothiadiazole and imidazopyridazine derivatives as protease activated receptor 4 (PAR4) inhibitors for treating platelet aggregation” (2013)
The source made the active and inactive calls. The calls are words filed in the database; no cut-off is given here. Where a SMILES comes first, the peptide text is derived from it. [ ]: non-standard residue; d: D form. The star is where a group is joined. Phe(4-guanidino) = N=C(N)Nc1ccc(C[C@H](N)C(=O)O)cc1; Phe(4-F) = N[C@@H](Cc1ccc(F)cc1)C(=O)O; X1 = O=C(/C=C/c1ccccc1)*

How the values were obtained:
[1] = target: T1, Proteinase-activated receptor 4 (Homo sapiens) (UniProt Q96RI0); experiment: Antagonist activity against PAR4 in washed human platelets assessed as inhibition of alpha-thrombin-induced platelet aggregation at 30 to 300 nM pre-incubated for 20 mins before alpha-thrombin addition and measured over 100 to 500 secs by optical aggregometry; type: functional
T1 sequence (whole entry): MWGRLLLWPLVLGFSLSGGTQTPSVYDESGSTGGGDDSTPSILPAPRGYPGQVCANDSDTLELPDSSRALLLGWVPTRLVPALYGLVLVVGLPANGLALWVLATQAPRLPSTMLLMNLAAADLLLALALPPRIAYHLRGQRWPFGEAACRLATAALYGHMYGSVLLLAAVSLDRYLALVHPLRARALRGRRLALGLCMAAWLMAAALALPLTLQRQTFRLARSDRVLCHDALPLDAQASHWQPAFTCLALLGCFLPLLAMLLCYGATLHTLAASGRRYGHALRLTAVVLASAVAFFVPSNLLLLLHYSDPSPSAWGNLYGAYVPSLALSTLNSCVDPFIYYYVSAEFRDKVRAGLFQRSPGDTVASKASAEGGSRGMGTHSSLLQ

[2] = target: T2, Proteinase-activated receptor 1 (Homo sapiens) (UniProt P25116); experiment: Antagonist activity against PAR1 in washed human platelets assessed as inhibition of alpha-thrombin-induced platelet aggregation at 30 to 300 nM pre-incubated for 20 mins before alpha-thrombin addition and measured over 100 to 500 secs by optical aggregometry; type: functional
T2 sequence (whole entry): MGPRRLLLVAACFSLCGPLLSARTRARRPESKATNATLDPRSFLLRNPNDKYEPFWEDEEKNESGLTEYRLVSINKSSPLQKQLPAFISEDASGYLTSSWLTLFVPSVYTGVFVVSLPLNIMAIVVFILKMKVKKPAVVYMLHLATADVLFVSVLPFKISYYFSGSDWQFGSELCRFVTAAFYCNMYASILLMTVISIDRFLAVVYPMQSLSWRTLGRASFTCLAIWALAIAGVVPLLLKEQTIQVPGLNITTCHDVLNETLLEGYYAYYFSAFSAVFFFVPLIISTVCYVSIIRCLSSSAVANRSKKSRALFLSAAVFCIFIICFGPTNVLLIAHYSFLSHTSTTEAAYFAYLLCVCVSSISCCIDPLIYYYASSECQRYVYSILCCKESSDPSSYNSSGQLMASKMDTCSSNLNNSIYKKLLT

| inhibition [1] | inhibition [2] | Compound |
| --- | --- | --- |
| Active | – | COc1cc(OCc2cccc(-c3ccc(C#N)nc3)c2)c2cc(-c3cn4nc(OC)sc4n3)oc2c1 |
| – | Active | CC(C)C[C@H](NC(=O)[C@H](Cc1ccc(NC(=N)N)cc1)NC(=O)[C@H](Cc1ccc(F)cc1)NC(=O)/C=C/c1ccccc1)C(=O)N[C@@H](CCCNC(=N)N)C(=O)N[C@@H](CCCNC(=N)N)C(=O)O (X1-[Phe(4-F)][Phe(4-guanidino)]LRR-OH) |
